In US8324390B2, “Tetrazole-substituted anthranilamides as pesticides” (Bayer CropScience AG, priority 2008, dated 2012):
Like-named read-outs stand apart in the source and are kept apart here.

What was measured:
[1] = log P determination by HPLC (EEC Directive 79/831 Annex V.A8); assay type: physicochemical
Description: The measurements were carried out using an Agilent 1100 LC system with a 50*4.6 Zorbax Eclipse C18 1.8 μm column (oven temperature 55° C., flow rate 2.0 ml/min).
The following mobile phases were used:
Mobile phase A: acetonitrile+1000 μl of formic acid/l
Mobile phase B: Millipore water+900 μl of formic acid/l

[2] = tested on: caterpillars of the armyworm (Spodoptera frugiperda); assay: Spodoptera frugiperda test (SPODFR spray treatment); assay type: in vivo; settings: for pest or weed control at 100 g/ha: Spodoptera frugiperda, foliar, read-out: effect in % (caterpillars killed)
Excerpt: Solvent: 78.0 parts by weight of acetone

[3] = tested on: larvae of the mustard beetle (Phaedon cochleariae); assay: Phaedon test (PHAECO spray treatment); settings: 7 days
[4] = reversed-phase HPLC, Zorbax Eclipse C18 column, determined by HPLC according to EEC Directive 79/831 Annex V.A8, read-out: log P
[5] = application rate 100 g/ha, maize leaf discs

| chromatographic logP [1, 4] | SMILES | chromatographic logP ([1]; log P) | pest or weed control at 100 g/ha ([2]; in Zea mays) | other results |
| --- | --- | --- | --- | --- |
| – | COCC(C)(C)NC(=O)c1cc(C#N)cc(C)c1NC(=O)c1cc(Cn2nnc(C(F)(F)F)n2)nn1-c1ncccc1Cl [Example 356] | 3.29 | – | – |
| – | Cc1cc(F)cc(C(=O)NC2CCC2)c1NC(=O)c1cc(Cn2nnc(C(F)(F)F)n2)nn1-c1ncccc1Cl [Example 51] | 3.23 | ≥ 80% | – |
| – | Cc1cc(Cl)cc(C(N)=O)c1NC(=O)c1cc(Cn2nnc(C(F)(F)F)n2)nn1-c1ncccc1Cl [Example 106] | 2.76 | ≥ 80% | – |
| 3.13 | Cc1cc(Cl)cc(C(N)=O)c1NC(=O)c1cc(Cn2nnc(C(F)(F)C(F)(F)F)n2)nn1-c1ncccc1Br [Example 418] | – | – | – |
| – | Cc1cc(Cl)cc(C(=O)NC(C)C)c1NC(=O)c1cc(Cn2nnc(-c3ccc(Br)cc3)n2)nn1-c1ncccc1Cl | – | – | Kill in %/7 days ([3]; 0.8 g/ha): 0% |
| 4.36 | Cc1cc(Cl)cc(C(=O)NC(C)(C)C)c1NC(=O)c1cc(Cn2nnc(C(F)(F)F)n2)nn1-c1ccccc1Cl [Example 534] | – | – | pest or weed control at 100 g/ha [2, 5]: ≥ 80% |
| – | Cc1cc(C#N)cc(C(N)=O)c1NC(=O)c1cc(Cn2nnc(C(F)(F)F)n2)nn1-c1ncccc1Br [Example 324] | – | – | pest or weed control at 100 g/ha [2, 5]: ≥ 80%; chromatographic logP ([1]; reversed-phase HPLC, Zorbax Eclipse C18 column, by HPLC according to EEC Directive 79/831 Annex V.A8, read-out: log P): 2.46 |
| – | Cc1cc(F)cc(C(=O)NC(C)C2CC2)c1NC(=O)c1cc(Cn2nnc(C(F)F)n2)nn1-c1ncccc1Cl (stereo not shown) [Example 293] | 2.92 | ≥ 80% | – |
| 2.84 | CNC(=O)c1cc(Cl)cc(C)c1NC(=O)c1cc(Cn2nnnc2C(F)(F)F)nn1-c1ccccc1 [Example 502] | – | – | pest or weed control at 100 g/ha [2, 5]: ≥ 80% |
| 3.87 | Cc1cc(Cl)cc(C(=O)NC(C)C)c1NC(=O)c1cc(Cn2nnc(C(F)(F)C(F)(F)F)n2)nn1-c1ncccc1Br [Example 417] | – | – | – |
| 4 | Cc1cc(Br)cc(C(=O)NC(C)(C)C)c1NC(=O)c1cc(Cn2nnc(C(F)(F)F)n2)nn1-c1ncccc1Br [Example 409] | – | – | – |
| – | Cc1cc(Cl)cc(C(=O)NC(C)C)c1NC(=O)c1cc(Cn2nnc(C(F)(F)C(F)(F)F)n2)nn1-c1ncccc1Cl [drawing 599] | – | – | Kill in %/7 days ([2]; 0.8 g/ha): 100% |
| – | Cc1cc(F)cc(C(=O)NC2CC2)c1NC(=O)c1cc(Cn2nnc(C(F)F)n2)nn1-c1ncccc1Cl [Example 294] | 2.41 | ≥ 80% | – |
| – | CSC[C@H](C)NC(=O)c1cc(I)cc(C)c1NC(=O)c1cc(Cn2nnc(C(F)F)n2)nn1-c1ncccc1Cl [Example 278] | 3.41 | ≥ 80% | – |
| – | Cc1cc(C#N)cc(C(=O)NCCN)c1NC(=O)c1cc(Cn2nnc(C(F)(F)F)n2)nn1-c1ncccc1Cl [Example 123] | 1.63 | – | – |
| – | Cc1cc(C)c(NC(=O)c2cc(Cn3nnc(C(F)(F)F)n3)nn2-c2ncccc2Cl)c(C(=O)NC(C)C)c1 [Example 79] | 3.29 | ≥ 80% | – |
| – | CSC[C@H](C)NC(=O)c1cc(C#N)cc(C)c1NC(=O)c1cc(Cn2nnc(C(F)F)n2)nn1-c1ncccc1Cl [Example 268] | 2.77 | ≥ 80% | – |
| – | CNC(=O)c1cc(Cl)cc(C)c1NC(=O)c1cc(Cn2nnnc2C(F)(F)F)nn1-c1ncccc1Cl [drawing 597] | – | – | Kill in %/7 days ([3]; 4 g/ha): 67% |
| – | Cc1cc(C#N)cc(C(=O)NCC2CC2(Cl)Cl)c1NC(=O)c1cc(Cn2nnnc2C(F)(F)F)nn1-c1ncccc1Cl (stereo not shown) [Example 190] | 3.16 | ≥ 80% | – |
| – | CCNC(=O)c1cc(C#N)cc(C)c1NC(=O)c1cc(C(C)n2nnc(C(F)(F)F)n2)nn1-c1ncccc1Cl (stereo not shown) [Example 429] | 3.11 | – | – |
| – | CCNC(=O)c1cc(F)cc(C)c1NC(=O)c1cc(Cn2nnc(C(F)(F)F)n2)nn1-c1ncccc1Cl [Example 35] | 2.88 | ≥ 80% | – |
| 2.43 | CNC(=O)c1cc(S(C)(=O)=O)cc(C)c1NC(=O)c1cc(Cn2nnnc2C(F)(F)F)nn1-c1ccccc1Cl [Example 524] | – | – | – |
| – | CSC[C@H](C)NC(=O)c1cc(Cl)cc(Cl)c1NC(=O)c1cc(Cn2nnc(C(F)F)n2)nn1-c1ncccc1Cl [Example 288] | 3.13 | ≥ 80% | – |
| – | Cc1cc(C#N)cc(C(=O)NC(C)C2CCC2)c1NC(=O)c1cc(Cn2nnc(C(F)(F)F)n2)nn1-c1ncccc1Cl (stereo not shown) [Example 90] | 3.63 | – | – |
| 2.9 | Cc1cc(Br)cc(C(=O)NCC#N)c1NC(=O)c1cc(Cn2nnnc2C(F)(F)F)nn1-c1ncccc1C(F)(F)F [Example 451] | – | – | – |
| 3.62 | Cc1cc(Cl)cc(C(=O)NC2CC2)c1NC(=O)c1cc(Cn2nnc(C(F)(F)C(F)(F)F)n2)nn1-c1ncccc1Br [Example 420] | – | – | – |
| 2.8 | Cc1cc(C#N)cc(C(=O)NCC#N)c1NC(=O)c1cc(Cn2nnc(C(F)(F)C(F)(F)F)n2)nn1-c1ncccc1Br [Example 416] | – | – | – |

| chromatographic logP [1, 4] | SMILES | chromatographic logP ([1]; log P) | pest or weed control at 100 g/ha ([2]; in Zea mays) | other results |
| --- | --- | --- | --- | --- |
| – | CC(NC(=O)c1cc(Cl)cc(Cl)c1NC(=O)c1cc(Cn2nnc(C(F)F)n2)nn1-c1ncccc1Cl)C1CC1 (stereo not shown) [Example 283] | 3.23 | – | – |
| – | Cc1cc(C#N)cc(C(=O)NCCCCCCO)c1NC(=O)c1cc(Cn2nnc(C(F)(F)F)n2)nn1-c1ncccc1Cl [Example 94] | 2.71 | – | – |
| 2.82 | Cc1cc(C#N)cc(C(N)=O)c1NC(=O)c1cc(Cn2nnc(C(F)(F)F)n2)nn1-c1ccccc1Cl [Example 439] | – | – | – |
| – | CCNC(=O)c1cc(Cl)cc(Cl)c1NC(=O)c1cc(Cn2nnc(C(F)F)n2)nn1-c1ncccc1Cl [Example 285] | 2.7 | ≥ 80% | – |
| – | Cc1cc(C#N)cc(C(N)=O)c1NC(=O)c1cc(Cn2nnc(C(F)F)n2)nn1-c1ncccc1Cl [Example 306] | 1.97 | ≥ 80% | – |
| 3.52 | Cc1cc(C#N)cc(C(=O)NC(C)(C)C)c1NC(=O)c1cc(Cn2nnnc2C(F)(F)F)nn1-c1ccccc1Cl [Example 489] | – | – | pest or weed control at 100 g/ha [2, 5]: ≥ 80% |
| 3.92 | Cc1cc(C#N)cc(C(=O)NCCC(F)(F)F)c1NC(=O)c1cc(Cn2nnc(C(F)(C(F)(F)F)C(F)(F)F)n2)nn1-c1ncccc1Cl [Example 414] | – | – | – |
| – | Cc1cc(I)cc(C(=O)NC(C)(C)C)c1NC(=O)c1cc(Cn2nnc(C(F)(F)F)n2)nn1-c1ncccc1Cl [Example 118] | 4.12 | ≥ 80% | – |
| – | CNC(=O)c1cc(Cl)cc(C)c1NC(=O)c1cc(Cn2nnnc2C(F)(F)F)nn1-c1ncccc1Cl [drawing 601] | – | – | Kill in %/7 days ([2]; 4 g/ha): 100% |
| 4.23 | Cc1cc(Cl)cc(C(=O)NC(C)(C)C)c1NC(=O)c1cc(Cn2nnc(C(F)(F)C(F)(F)F)n2)nn1-c1ncccc1Br [Example 419] | – | – | – |
| – | CNC(=O)c1cc(Cl)cc(C)c1NC(=O)c1cc(Cn2nnnc2-c2ccc(C(F)(F)F)cc2)nn1-c1ncccc1Cl [drawing 598] | – | – | Kill in %/7 days ([3]; 4 g/ha): 0% |
| 3.03 | CNC(=O)c1cc(C#N)cc(C)c1NC(=O)c1cc(Cn2nnc(C(F)(F)C(F)(F)F)n2)nn1-c1ncccc1Br [Example 422] | – | – | – |
| 3.36 | CNC(=O)c1cc(Cl)cc(C)c1NC(=O)c1cc(Cn2nnc(C(F)(F)C(F)(F)F)n2)nn1-c1ncccc1Br [Example 415] | – | – | – |
| – | CNC(=O)c1cc(F)cc(C)c1NC(=O)c1cc(Cn2nnc(C(F)F)n2)nn1-c1ncccc1Cl [Example 292] | 2.21 | ≥ 80% | – |
| – | CSC[C@H](C)NC(=O)c1cc(C#N)cc(C)c1NC(=O)c1cc(Cn2nnnc2C(F)(F)F)nn1-c1ncccc1Cl [Example 193] | 2.92 | – | – |
| – | CNC(=O)c1cc(Cl)cc(C)c1NC(=O)c1cc(Cn2nnnc2-c2ccc(C(F)(F)F)cc2)nn1-c1ncccc1Cl [drawing 602] | – | – | Kill in %/7 days ([2]; 4 g/ha): 33% |
| – | COCCNC(=O)c1cc(C#N)cc(C)c1NC(=O)c1cc(Cn2nnnc2C(F)(F)F)nn1-c1ncccc1Cl [Example 209] | 2.4 | – | – |
| – | Cc1cc(I)cc(C(=O)NC2CC2)c1NC(=O)c1cc(Cn2nnc(C(F)F)n2)nn1-c1ncccc1Cl [Example 275] | 2.96 | ≥ 80% | – |
| – | Cc1cc(C)c(NC(=O)c2cc(Cn3nnc(C(F)(F)F)n3)nn2-c2ncccc2Cl)c(C(=O)NCC2CC2)c1 [Example 83] | 3.35 | ≥ 80% | – |
| 4.41 | Cc1cc(Cl)cc(C(=O)NC(C)(C)C)c1NC(=O)c1cc(Cn2nnnc2C(F)(F)C(F)(F)F)nn1-c1ccccc1Cl [Example 536] | – | – | pest or weed control at 100 g/ha [2, 5]: ≥ 80% |
| – | CCNC(=O)c1cc(I)cc(C)c1NC(=O)c1cc(Cn2nnc(C(F)F)n2)nn1-c1ncccc1Cl [Example 276] | 2.98 | – | – |
| 2.72 | Cc1cc(Br)cc(C(N)=O)c1NC(=O)c1cc(Cn2nnnc2C(F)(F)F)nn1-c1ncccc1C(F)(F)F [Example 454] | – | – | – |
| 3.31 | Cc1cc(Cl)cc(C(=O)NCC#N)c1NC(=O)c1cc(Cn2nnc(C(F)(F)C(F)(F)F)n2)nn1-c1ncccc1Br [Example 421] | – | – | – |
| – | Cc1cc(Br)cc(C(=O)NC(C)C)c1NC(=O)c1cc(Cn2nnc(C(F)F)n2)nn1-c1ncccc1Cl [Example 299] | 3.08 | ≥ 80% | – |
| – | Cc1cc(C#N)cc(C(=O)NC(C)C#N)c1NC(=O)c1cc(Cn2nnc(C(F)(F)F)n2)nn1-c1ncccc1Cl (stereo not shown) [Example 326] | 2.76 | ≥ 80% | – |
| – | Cc1cc(I)cc(C(=O)NC(C)(C)C)c1NC(=O)c1cc(Cn2nnc(C(F)F)n2)nn1-c1ncccc1Cl [Example 307] | 3.5 | ≥ 80% | – |
| 3.78 | Cc1cc(Br)cc(C(=O)NC(C)(C)C)c1NC(=O)c1cc(Cn2nnnc2C(F)(F)F)nn1-c1ncccc1C(F)(F)F [Example 458] | – | – | pest or weed control at 100 g/ha [2, 5]: ≥ 80% |
